The values below come from US8912184B1, “Therapeutic and diagnostic methods” (Alzheimer's Institute of America, Inc., priority 2010, dated 2014).

Where two headings read alike, the source gives them in different places.

The test system of this test is HCT116 cells. As to the kind of experiment: Nicotinic Acid Rescue Cytotoxicity Assay, first method: cytotoxicity to HCT116 cells in presence and absence of 10 μM nicotinic acid. Type of test: cell-based. The note with it: Homo sapiens, HCT-116, 72 h. As for the experimental part:
Additionally, Nicotinic Acid (NA) rescue of cytotoxicity of Nampt inhibitors was assessed by two distinct methods. In the first method, Nampt1 inhibitor cytotoxicity was evaluated in the presence and absence of exogenous nicotinic acid (NA) at a fixed concentration. […] Twenty four hours after cells were plated, the media was removed and replaced with media containing 10 μM nicotinic acid. Compounds were then immediately added. Cell viability was then assessed at 72 h.
Using the first of the two assays described above, the 90 compounds shown in Table 5, below, were tested for cytotoxicity towards Naprt1-proficient HCT116 cells, and for the ability of NA to block the observed cytotoxicity (or “rescue” the cells from the cytotoxic activity of the tested compound). The compounds listed are referred to by a unique rescue analysis example number (i.e., R1, R2 . . . R90) that is used as a reference number in Table 4, in which the results of the cytotoxicity and rescue assays are presented.

[1] abbreviates: absence of nicotinic acid, read-out: HCT116 72 h cytotoxicity.
Where [2] appears, read: presence of 10 μM nicotinic acid, read-out: HCT116 72 h cytotoxicity with 10 μM Nicotinic Acid.

As for `O=C(NCc1cccnc1)Nc1ccc(NS(=O)(=O)c2ccccc2Br)cc1F` [Example R56, 2-bromo-N-(3-fluoro-4-{[(pyridin-3-ylmethyl)carbamoyl]amino}phenyl)benzene-sulfonamide], the IC50 under setting [1] is 50 nM and the IC50 under setting [2] was more than 1000 nM.
In the case of `CN(C)c1cccc2c(S(=O)(=O)Nc3ccc(NC(=O)NCc4cccnc4)cc3)cccc12` [Example R45, 5-(Dimethylamino)-N-(4-{[(pyridin-3-ylmethyl)carbamoyl]amino}phenyl) naphthalene-1-sulfonamide], the IC50 under setting [1] turned out to be 4.8 nM and the IC50 under setting [2] was more than 10000 nM.
`O=C(NCc1cccnc1)Nc1ccc(COc2ccccc2-c2cccc(F)c2)cc1` [Example R82, 1-(4-{[(3′-Fluorobiphenyl-2-yl)oxy]methyl}phenyl)-3-(pyridin-3-ylmethyl)urea]: the IC50 is 1.9 nM under setting [1] and more than 5000 nM under setting [2].
For `CC(C)=CCN(Cc1cc2c(=O)n(C)c(C)nc2cc1Cl)c1ccc(C(=O)NCc2cccnc2)cc1` [Example R51, 4-{[(7-Chloro-2,3-dimethyl-4-oxo-3,4-dihydroquinazolin-6-yl)methyl](3-methylbut-2-en-1-yl)amino}-N-(pyridin-3-ylmethyl)benzamide], the IC50 was 9.5 nM under setting [1] and more than 10000 nM under setting [2].
Regarding `N#C/N=C(/NCc1ccc(NS(=O)(=O)c2ccccc2-c2ccccc2)cc1)Nc1ccncc1` [Example R59, N-(4-{[N″-cyano-N′-(pyridin-4-yl)carbamimidamido]methyl}phenyl) biphenyl-2-sulfonamide], the IC50 under setting [1] came out at 0.6 nM and the IC50 under setting [2] was more than 5000 nM.
Consider `O=C(NCc1cccnc1)Nc1ccc(NC(=O)c2ccccc2-c2ccccc2)cc1` [Example R55, N-(4-{[(pyridin-3-ylmethyl)carbamoyl]amino}phenyl)biphenyl-2-carboxamide], for which the IC50 is 48.8 nM under setting [1] and more than 1000 nM under setting [2].
As for `O=C(NCc1cccnc1)Nc1ccc(C2(Oc3ccccc3-c3ccccc3)CC2)cc1` [Example R87, 1-{4-[1-(Biphenyl-2-yloxy)cyclopropyl]phenyl}-3-(pyridin-3-ylmethyl)urea], the IC50 was found to be 1.1 nM under setting [1] and 3000 nM under setting [2].
On to `O=C(CNCc1ccccc1Br)Nc1ccc(C(=O)NCc2cccnc2)cc1` [Example R18, 4-{[N-(2-Bromobenzyl)glycyl]amino}-N-(pyridin-3-ylmethyl)benzamide], for which the IC50 is, setting by setting: under setting [1], 6810 nM; under setting [2], more than 50000 nM.
In the case of `O=C(CN1CCc2ccccc21)Nc1ccc(C(=O)NCc2cccnc2)cc1` [Example R16, 4-[(2,3-Dihydro-1H-indol-1-ylacetyl)amino]-N-(pyridin-3-ylmethyl)benzamide], the IC50 under setting [1] amounted to 3290 nM and the IC50 under setting [2] was more than 50000 nM.
For the compound `CC(C)=CCN(Cc1cc2c(=O)n(C)cnc2cc1Cl)c1ccc(C(=O)NCc2cccnc2)cc1` [Example R52, 4-{[(7-Chloro-3-methyl-4-oxo-3,4-dihydroquinazolin-6-yl)methyl](3-methylbut-2-en-1-yl)amino}-N-(pyridin-3-ylmethyl)benzamide], the IC50 is, setting by setting: under setting [1], 7.3 nM; under setting [2], more than 10000 nM.
As to `Cc1cc(S(=O)(=O)Nc2ccc(NC(=O)NCc3cccnc3)cc2)c(Cl)cc1Cl` [Example R76, 2,4-dichloro-5-methyl-N-(4-{[(pyridin-3-ylmethyl)carbamoyl]amino}phenyl)benzene-sulfonamide], the IC50 under setting [1] is 1.3 nM and the IC50 under setting [2] was more than 5000 nM.
As for `Cc1c(COc2ccc(C(=O)NCc3cccnc3)cc2)cccc1C(F)(F)F` [Example R24, 4-{[2-Methyl-3-(trifluoromethyl)benzyl]oxy}-N-(pyridin-3-ylmethyl)benzamide], the IC50 reads like this: under setting [1], 12000 nM; under setting [2], 45000 nM.
Taken in the same sequence, the figures for `O=C(CNc1ccccc1Oc1ccccc1)Nc1ccc(C(=O)NCc2cccnc2)cc1` [Example R19, 4-{[N-(2-Phenoxyphenyl)glycyl]amino}-N-(pyridin-3-ylmethyl)benzamide] were 586 nM and more than 50000 nM.
`CC(C)=CCN(Cc1ccccc1Cl)c1ccc(C(=O)NCc2cccnc2)cc1` [Example R44, 4-[(2-Chlorobenzyl)(3-methylbut-2-en-1-yl)amino]-N-(pyridin-3-ylmethyl)benzamide]: the IC50 under setting [1] came to 16.3 nM and the IC50 under setting [2] is more than 10000 nM.
On to `O=C(/C=C/c1cccnc1)NCCCCC1CCN(C(=O)c2ccccc2)CC1` [Example R3, (2E)-N-[4-(1-Benzoylpiperidin-4-yl)butyl]-3-(pyridin-3-yl)prop-2-enamide], for which the IC50 under setting [1] turned out to be 1.4 nM and the IC50 under setting [2] was more than 10000 nM.
Turning to `C#CCN(Cc1ccccc1-c1ccccc1)c1ccc(C(=O)NCc2cccnc2)cc1` [Example R9, 4-[(Biphenyl-2-ylmethyl)(prop-2-yn-1-yl)amino]-N-(pyridin-3-ylmethyl)benzamide], the IC50 reads like this: under setting [1], 41.5 nM; under setting [2], 12000 nM.
Turning to `O=C(NCc1cccnc1)Nc1ccc(NS(=O)(=O)c2ccccc2-c2ccn[nH]2)cc1` [Example R88, 2-(1H-Pyrazol-5-yl)-N-(4-{[(pyridin-3-ylmethyl)carbamoyl]amino}phenyl)benzene-sulfonamide], the IC50 runs as follows: under setting [1], 2.5 nM; under setting [2], more than 5000 nM.
Taken in the same sequence, the figures for `O=C(NCc1cccnc1)Nc1ccc(NS(=O)(=O)c2ccc3ccccc3c2)cc1` [Example R46, N-(4-{[(Pyridin-3-ylmethyl)carbamoyl]amino}phenyl) naphthalene-2-sulfonamide] were 64.8 nM and more than 10000 nM.
For `O=C(NCc1cccnc1)Nc1ccc(NS(=O)(=O)c2ccccc2-c2ccsc2)cc1` [Example R63, N-(4-{[(pyridin-3-ylmethyl)carbamoyl]amino}phenyl)-2-(thiophen-3-yl)benzenesulfonamide], the IC50 by setting is: under setting [1], 1.6 nM; under setting [2], more than 10000 nM.
As to `O=C(NCc1cccnc1)Nc1ccc(CNc2ccccc2-c2ccccc2)cc1` [Example R86, 1-{4-[(Biphenyl-2-ylamino)methyl]phenyl}-3-(pyridin-3-ylmethyl)urea], the IC50 turned out to be 0.4 nM under setting [1] and 4000 nM under setting [2].
Taken in the same sequence, the figures for `O=C(CN1CCCc2ccccc21)Nc1ccc(C(=O)NCc2cccnc2)cc1` [Example R17, 4-[(3,4-Dihydroquinolin-1(2H)-ylacetyl)amino]-N-(pyridin-3-ylmethyl)benzamide] were 2050 nM and more than 50000 nM.
Consider `N#C/N=C(\NCCCCCCOc1ccc(Cl)cc1)Nc1ccnc(Cl)c1` [Example R37, 1-[6-(4-Chlorophenoxy)hexyl]-2-(2-chloropyridin-4-yl)-3-cyanoguanidine], for which the IC50 was found to be 168 nM under setting [1] and 5000 nM under setting [2].
Take `O=C(NCc1cccnc1)c1ccc(NCc2ccccc2OC(F)(F)F)cc1` [Example R8, N-(Pyridin-3-ylmethyl)-4-{[2-(trifluoromethoxy)benzyl]amino}benzamide]: the IC50 runs as follows: under setting [1], 3130 nM; under setting [2], more than 10000 nM.
Consider `O=C(NCc1cccnc1)Nc1ccc(NS(=O)(=O)c2sccc2Br)cc1` [Example R71, 3-bromo-N-(4-{[(pyridin-3-ylmethyl)carbamoyl]amino}phenyl) thiophene-2-sulfonamide], for which the IC50 under setting [1] came to 13.2 nM and the IC50 under setting [2] was more than 5000 nM.
Taken in the same sequence, the figures for `C/C=C/CN(Cc1ccccc1Cl)c1ccc(C(=O)NCc2cccnc2)cc1` [Example R43, 4-[(2E)-But-2-en-1-yl(2-chlorobenzyl)amino]-N-(pyridin-3-ylmethyl)benzamide] were 98.6 nM and more than 10000 nM.
`N#C/N=C(/NCc1ccc(COc2ccccc2-c2ccccc2)cc1)Nc1ccncc1` [Example R70, 1-{4-[(biphenyl-2-yloxy)methyl]benzyl}-2-cyano-3-pyridin-4-ylguanidine]: the IC50 under setting [1] was found to be 1.1 nM and the IC50 under setting [2] was more than 5000 nM.
`O=C(NCc1cccnc1)c1ccc(OCc2ccccc2-c2ccccc2)cc1` [Example R23, 4-(Biphenyl-2-ylmethoxy)-N-(pyridin-3-ylmethyl)benzamide]: the IC50 was 539 nM under setting [1] and more than 50000 nM under setting [2].
On to `S=C(NCCCCCCOc1ccc(Cl)cc1)Nc1cccnc1` [Example R39, 1-[6-(4-Chlorophenoxy)hexyl]-3-pyridin-3-ylthiourea], for which the IC50 under setting [1] is 1620 nM and the IC50 under setting [2] is more than 10000 nM.
Regarding `O=C(NCc1cccnc1)c1ccc(NC(=O)c2ccccc2)cc1` [Example R6, 4-[(Phenylcarbonyl)amino]-N-(pyridin-3-ylmethyl)benzamide], the IC50 runs as follows: under setting [1], 1690 nM; under setting [2], more than 10000 nM.
As for `O=C(NCc1cccnc1)Nc1ccc(S(=O)(=O)Nc2ccccc2Cl)cc1` [Example R54, N-(2-chlorophenyl)-4-{[(pyridin-3-ylmethyl)carbamoyl]amino} benzenesulfonamide], the IC50 is, setting by setting: under setting [1], 71.5 nM; under setting [2], more than 10000 nM.
`Cc1ccccc1-c1ccccc1CNc1ccc(C(=O)NCc2cccnc2)cc1` [Example R28, 4-{[(2′-Methylbiphenyl-2-yl)methyl]amino}-N-(pyridin-3-ylmethyl)benzamide]: the IC50 runs as follows: under setting [1], 335 nM; under setting [2], 25000 nM.
Take `C#CCN(Cc1cc2c(=O)n(C)c(CN3CCN(CCN)CC3)nc2cc1Cl)c1ccc(C(=O)NCc2cccnc2)cc1` [Example R2, 4-{[(2-{[4-(2-Aminoethyl)piperazin-1-yl]methyl}-7-chloro-3-methyl-4-oxo-3,4-dihydroquinazolin-6-yl)methyl](prop-2-yn-1-yl)amino}-N-(pyridin-3-ylmethyl)benzamide]: the IC50 reads like this: under setting [1], 18.3 nM; under setting [2], more than 50000 nM.
